Literature values as cited in patent publication US20240199641A1, “QUINAZOLINE-4(3H)-ONE DERIVATIVES AS NEGATIVE ALLOSTERIC MODULATORS OF METABOTROPIC GLUTAMATE RECEPTOR 2” (Vanderbilt University, priority 2021, published 2024).
Where two headings read alike, the source gives them in different places.

Tests used:
[1] = C57Bl6/J mice
[2] = for activity in tail suspension test: Helpless (H) mice
[3] = system: central mGlu2 and mGlu3 receptors; conditions: in vivo
[4] = CFS model
[5] = normal animals
[6] = mice
[7] = normal animals; remark: listed apart in the source
[8] = olfactory bulbectomized rats, repeated administration for 14 days
[9] = social isolation reared mice
[10] = treatment for 7 days

SMILES	immobility time in FST [1]	activity in tail suspension test [2]	hypolocomotor effect of mGlu2/3 agonist LY379268 [3]	freezing behavior [4]	antidepressant-like effects in mouse TST [5]	marble-burying behavior [6]	antidepressant-like effects in rat FST [7]	further results
Cc1cc(-c2cccc(C3=Nc4cc(C)c(C(F)(F)F)cc4NC(=O)C3)c2)cc(C)n1 [RO4491533]	dose-dependently reduced	active	reversed					
CN1C(=O)CN=C(c2ccccc2)c2cc(Cl)ccc21 [diazepam]				significantly decreased				
CNCCC(Oc1ccc(C(F)(F)F)cc1)c1ccccc1 (centres unmarked) [fluoxetine]								antidepressant effect in helpless mice ([2]; chronic (21 days) treatment): full antidepressant effect
N[C@](CC1c2ccccc2Oc2ccccc21)(C(=O)O)[C@H]1C[C@@H]1C(=O)O [LY341495]	dose-dependently reduced	active	achieved the same result		Antidepressant-like effects	significantly reduce	Antidepressant-like effects	antidepressant effect in helpless mice ([2]; acute administration): potent antidepressant effect
N[C@]1(C(=O)O)[C@H]2[C@@H](C[C@H]1OCc1ccc(Cl)c(Cl)c1)[C@]2(F)C(=O)O [MGS0039]				significantly decreased	Antidepressant-like effects	reduced	Antidepressant-like effects	hyperactivity in the open field test [8]: attenuated; learning deficit in the passive avoidance test [8]: attenuated; spontaneous locomotor activity [6]: no significant change; increased immobility in FST [9]: reversed; number of escape failures [10]: significantly reduced
CCCCCCCOC(=O)[C@@]1(F)[C@@H]2C[C@@H](OCc3ccc(Cl)c(Cl)c3)[C@@](N)(C(=O)O)[C@@H]21 [BCI-838]								duration of inhibition of group II mGlu receptors by brain concentration of active metabolite BCI-632 (group II mGlu receptors; once-daily oral dosing): 22 h; Dutch APP transgene-associated learning and memory impairment (group II mGlu receptors; three months of treatment): reversed; anxiolytic effects (group II mGlu receptors; three months of treatment): anxiolytic effects; levels of monomeric and oAβ peptides in hippocampus and cortex (group II mGlu receptors; three months of treatment, two AD mouse models): decreased; hippocampal progenitor cell proliferation (group II mGlu receptors; wild-type and Alzheimer's diseased mice, 3 months): stimulated
